Source: patent US20210330611A1, “THERAPY FOR NEUROLOGICAL DISEASES/DISORDERS” (priority 2020, published 2021)
Where a name gives a salt, the structure may show the parent alone. Read-outs that look alike come from different tables or passages of the source.

Tests used:
[1] = tested on: LPS-induced microglia activation; assay: Image-based assay of LPS-induced microglia activation (HTS and dose response); assay type: cell-based, rat; settings: for inhibition at 10 µM: Rattus norvegicus, Microglia, read-out: LPS % inhibition
primary rat microglia [2] = assay: Cell toxicity (dead cells, size <150 μm2) in coated fibrin (cFib) assay;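 further: share of dead cells sized under 150 µm2 at 10 µM in fibrin-stimulated microglia HTS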
primary rat microglia [3] = assay: Cell toxicity (dead cells, size <150 μm2) in LPS assay
[4] = tested on: fibrin-induced microglia activation; assay: Image-based assay of fibrin-induced microglia activation (HTS and dose response); assay type: cell-based, rat; settings: for inhibition at 10 µM: Rattus norvegicus, Microglia, read-out: Fibrin % inhibition
[5] = tested on: fibrin- and LPS-induced microglia activation; assay: cells; assay type: cell-based, rat
[6] = primary microglia HTS, 10 μM, LPS-stimulated, cell size >800 μm^2 as marker of activation
[7] = primary microglia HTS, 10 μM, fibrin assay, cell size <150 μm^2 as marker of toxicity
[8] = primary microglia HTS, 10 μM, LPS assay, cell size <150 μm^2 as marker of toxicity
[9] = primary microglia HTS, 10 μM, fibrin-stimulated, cell size >800 μm^2 as marker of activation
[10] = HTS of 1907 compounds, quadrant by fibrin and LPS inhibition
[11] = 48 h, primary microglia HTS, LPS stimulation, increased cell size (>800 μm^2) as marker of activation
[12] = primary microglia HTS, fibrin stimulation, decreased size (<150 μm^2) as marker of toxicity
[13] = primary microglia HTS, LPS stimulation, decreased size (<150 μm^2) as marker of toxicity
[14] = primary microglia HTS, fibrin stimulation, increased cell size (>800 μm^2) as marker of activation
[15] = quadrant by fibrin and LPS inhibition in HTS of 1907 compounds
[16] = primary microglia HTS, LPS stimulation, activation = cell size >800 μm2
[17] = primary microglia HTS, fibrin stimulation, toxicity = cell size <150 μm2
[18] = primary microglia HTS, LPS stimulation, toxicity = cell size <150 μm2
[19] = primary microglia HTS, fibrin stimulation, activation = cell size >800 μm2
[20] = primary HTS, 10 μM, LPS-stimulated primary microglia
[21] = primary HTS, 10 μM, fibrin assay, dead cells size <150 μm2
[22] = primary HTS, 10 μM, LPS assay, dead cells size <150 μm2
[23] = primary HTS, 10 μM, fibrin-stimulated primary microglia

| Structure (SMILES) | inhibition at 10 µM [1, 6] | Fibrin % cell toxicity (primary rat microglia [2]; [7]) | LPS % cell toxicity (primary rat microglia [3]; [8]) | inhibition at 10 µM [4, 9] | Quadrant (FIG. 5b) [5, 10] | inhibition at 10 µM [1, 11] | Fibrin % cell toxicity (primary rat microglia [2]; [12]) | LPS % cell toxicity (primary rat microglia [3]; [13]) | inhibition at 10 µM [4, 14] | Quadrant (FIG. 5b) [5, 15] | further results |
| --- | --- | --- | --- | --- | --- | --- | --- | --- | --- | --- | --- |
| Cc1c(C)c2c(c(C)c1O)CCC(C)(COc1ccc(CC3SC(=O)NC3=O)cc1)O2 (centres unmarked) [Troglitazone] | 4% | 1% | 0% | -22% | Q4 |  |  |  |  |  |  |
| CC[N+](C)(CC)CCOC(=O)C(O)(c1ccccc1)C1CCCCC1 (centres unmarked) [Oxyphenonium] |  |  |  |  |  | 30% | 1% | 1% | -14% | Q4 |  |
| CC(=O)[C@H]1CC[C@H]2[C@@H]3C[C@H](C)C4=CC(=O)CC[C@]4(C)[C@H]3[C@@H](O)C[C@]12C [Medrysone] |  |  |  |  |  | 87% | 4% | 4% | 111% | Q2 |  |
| NCCc1cc(O)c(O)cc1O [Oxidopamine Hydrochloride] |  |  |  |  |  | 19% | 0% | 0% | 1% | Q4 |  |
| Cc1ccnc2c1NC(=O)c1cccnc1N2C1CC1 [Nevirapine] |  |  |  |  |  | 15% | 0% | 0% | 3% | Q4 |  |
| C[C@@H]1O[C@@H]1P(=O)(O)O [Fosphomycin] |  |  |  |  |  |  |  |  |  | Q4 | LPS % inhibition [1, 16]: 12%; Fibrin % cell toxicity (primary rat microglia [2]; [17]): 1%; LPS % cell toxicity (primary rat microglia [3]; [18]): 0%; Fibrin % inhibition [4, 19]: 4% |
| N[C@@H](C(=O)N[C@@H]1C(=O)N2C(C(=O)O)=C(Cl)CS[C@H]12)c1ccccc1 [Cefaclor] |  |  |  |  |  |  |  |  |  |  | inhibition at 10 µM [1, 20]: 19%; Fibrin % cell toxicity (primary rat microglia [2]; [21]): 1%; LPS % cell toxicity (primary rat microglia [3]; [22]): 0%; inhibition at 10 µM [4, 23]: -14%; Quadrant (FIG. 5b) ([5]; primary HTS, 10 μM): Q4 |
| CC(C)OC(=O)CCC/C=C\C[C@@H]1[C@@H](/C=C/[C@@H](O)COc2cccc(C(F)(F)F)c2)[C@H](O)C[C@@H]1O [Travoprost] | 15% | 1% | 0% | 4% | Q4 |  |  |  |  |  |  |
| CC(C)(C)NC[C@H](O)COc1cccc2c1CCCC2=O [Levobunolol Hydrochloride] |  |  |  |  |  |  |  |  |  | Q4 | LPS % inhibition [1, 16]: 12%; Fibrin % cell toxicity (primary rat microglia [2]; [17]): 0%; LPS % cell toxicity (primary rat microglia [3]; [18]): 0%; Fibrin % inhibition [4, 19]: −19% |
| Cc1cc(O)cc(C)c1Cl [Chloroxylenol] |  |  |  |  |  |  |  |  |  |  | inhibition at 10 µM [1, 20]: 7%; Fibrin % cell toxicity (primary rat microglia [2]; [21]): 1%; LPS % cell toxicity (primary rat microglia [3]; [22]): 0%; inhibition at 10 µM [4, 23]: -15%; Quadrant (FIG. 5b) ([5]; primary HTS, 10 μM): Q4 |
| O[C@H]1[C@H](O)[C@@H](O)[C@H](O)[C@@H](O)[C@H]1O [Inositol] |  |  |  |  |  |  |  |  |  | Q4 | inhibition at 10 µM ([1]; 48 h, primary microglia HTS, LPS stimulation, activation = cell size >800 μm2): 11%; Fibrin % cell toxicity (primary rat microglia [2]; [17]): 0%; LPS % cell toxicity (primary rat microglia [3]; [18]): 0%; inhibition at 10 µM [4, 19]: -21% |
| CCCOc1ccccc1-c1nc2nn[nH]c2c(=O)[nH]1 [Zaprinast] | 13% | 1% | 0% | -34% | Q4 |  |  |  |  |  |  |
| COc1ccccc1N1CCN(CCCNc2cc(=O)n(C)c(=O)n2C)CC1 [Urapidil Hydrochloride] | 20% | 1% | 0% | -6% | Q4 |  |  |  |  |  |  |
